Experiments:
[1] = only with lactic acid and orthophosphoric acid, of the many acids tested; no cyclodextrin; cited from earlier work
[2] = Stability and water solubility of the crystalline free base (background statement); type: physicochemical

- chemically and physically stable for (time) ([2]; crystalline form, 25° C. and 60% Relative Humidity (RH)): up to 3 years
- water solubility of the free base ([2]; for an aqueous solution formulation for intravenous or parenteral administration at therapeutic dosage levels): insufficiently water soluble
SMILES: CN(C)C1CCN(C(=O)c2ccc(NC(=O)Nc3ccc(-c4nc(N5CCOCC5)nc(N5CCOCC5)n4)cc3)cc2)CC1 [1-(4-{[4-(Dimethylamino)piperidin-1-yl]carbonyl}phenyl)-3-[4-(4,6-dimorpholin-4-yl-1,3,5-triazin-2-yl)phenyl]urea]
- concentration achieved as a clear solution [1]: ≥ 3000 µg/mL

Source: US12109308B2, “Aqueous formulation comprising 1-(4-{[4-(dimethylamino)piperidin-1-yljcarbonyl}phenyl)-3-[4-(4,6-dimorpholin-4-yl-1,3,5-triazin-2-yl)phenyl]urea” (Pfizer Inc., priority 2018, dated 2024)
